Test results from ChEMBL document CHEMBL3885861, “Open TG-GATES”.

Organism: Rattus norvegicus
Test: Open TG-GATES - Regimen: Daily Repeat
Type: toxicity, organism-based, Sprague-Dawley
Parameters: regimen Daily Repeat, gender Male, age 6 weeks
Details: in vivo, po, 100 mg/kg, route gavage, dose level High; for APTT / Bas / Eos / Fbg / Hb / Ht / Lym / MCH / MCHC / MCV / Mono / Neu / PT / Plat / RBC / Ret / WBC: tissue Blood; for KIDNEY_L / KIDNEY_R / KIDNEY_TOTAL: tissue Kidney; for LIVER: tissue Liver; for A/G / ALP / ALT / AST / BUN / CRE / Ca / Cl / DBIL / GLC / IP / K / LDH / Na / PL / RALB / TBIL / TC / TG / TP / gamma-GTP: tissue Plasma

Question: Which results are given for `CCCc1cc(=O)[nH]c(=S)[nH]1` [PROPYLTHIOURACIL]?
Answer: TERMINAL_BW (72 h, time 3 day): 209.7 g; APTT (72 h, time 3 day): 16 s; Bas (72 h, time 3 day): 0%; Eos (72 h, time 3 day): 0.8%; Fbg (72 h, time 3 day): 238.8 mg/dL; Hb (72 h, time 3 day): 13.2 g/dL; Ht (72 h, time 3 day): 39.6%; Lym (72 h, time 3 day): 80.6%; MCH (72 h, time 3 day): 22 pg; MCHC (72 h, time 3 day): 33.3%; MCV (72 h, time 3 day): 65.9 fL; Mono (72 h, time 3 day): 6.4%; Neu (72 h, time 3 day): 12.2%; PT (72 h, time 3 day): 12.1 s; Plat (72 h, time 3 day): 110 x10_4/uL; RBC (72 h, time 3 day): 601.4 x10_4/ul; Ret (72 h, time 3 day): 7.1%; WBC (72 h, time 3 day): 144 x10_2/uL; KIDNEY_L (72 h, time 3 day): 0.9 g; KIDNEY_R (72 h, time 3 day): 0.9 g; KIDNEY_TOTAL (72 h, time 3 day): 1.8 g; LIVER (72 h, time 3 day): 12.2 g; A/G (72 h, time 3 day): 1.7; ALP (72 h, time 3 day): 870.8 IU/L; ALT (72 h, time 3 day): 36.4 IU/L; AST (72 h, time 3 day): 60.4 IU/L; BUN (72 h, time 3 day): 20.2 mg/dL; CRE (72 h, time 3 day): 0.5 mg/dL; Ca (72 h, time 3 day): 11.5 mg/dL; Cl (72 h, time 3 day): 105.4 meq/L; DBIL (72 h, time 3 day): 0.008 mg/dL; GLC (72 h, time 3 day): 191.6 mg/dL; IP (72 h, time 3 day): 7.1 mg/dL; K (72 h, time 3 day): 4.5 meq/L; LDH (72 h, time 3 day): 181.2 IU/L; Na (72 h, time 3 day): 138.6 meq/L; PL (72 h, time 3 day): 199.6 mg/dL; RALB (72 h, time 3 day): 3.8 g/dL; TBIL (72 h, time 3 day): 0.3 mg/dL; TC (72 h, time 3 day): 116.2 mg/dL; TG (72 h, time 3 day): 94.2 mg/dL; TP (72 h, time 3 day): 6.1 g/dL; gamma-GTP (72 h, time 3 day): 1 IU/L; TERMINAL_BW ([…], time 7 day): 223.8 g; TERMINAL_BW ([…], time 14 day): 241.1 g; TERMINAL_BW ([…], time 28 day): 232 g; APTT ([…], time 7 day): 15.8 s; Bas ([…], time 7 day): 0%; Eos ([…], time 7 day): 1%; Fbg ([…], time 7 day): 239.2 mg/dL; Hb ([…], time 7 day): 13.7 g/dL; Ht ([…], time 7 day): 41.4%; Lym ([…], time 7 day): 81.2%; MCH ([…], time 7 day): 20.9 pg; MCHC ([…], time 7 day): 33.1%; MCV ([…], time 7 day): 63.2 fL; Mono ([…], time 7 day): 5.4%; Neu ([…], time 7 day): 12.4%; PT ([…], time 7 day): 13 s; Plat ([…], time 7 day): 113.5 x10_4/uL; RBC ([…], time 7 day): 655.4 x10_4/ul; Ret ([…], time 7 day): 3.8%; WBC ([…], time 7 day): 123.8 x10_2/uL; APTT ([…], time 14 day): 17 s; Bas ([…], time 14 day): 0%; Eos ([…], time 14 day): 0%; Fbg ([…], time 14 day): 189.4 mg/dL; Hb ([…], time 14 day): 14 g/dL; Ht ([…], time 14 day): 41.9%; Lym ([…], time 14 day): 79.4%; MCH ([…], time 14 day): 20.3 pg; MCHC ([…], time 14 day): 33.3%; MCV ([…], time 14 day): 61.1 fL; Mono ([…], time 14 day): 6.2%; Neu ([…], time 14 day): 14.4%; PT ([…], time 14 day): 13.9 s; Plat ([…], time 14 day): 93.2 x10_4/uL; RBC ([…], time 14 day): 686.2 x10_4/ul; Ret ([…], time 14 day): 1.6%; WBC ([…], time 14 day): 99.7 x10_2/uL; APTT ([…], time 28 day): 15.3 s; Bas ([…], time 28 day): 0%; Eos ([…], time 28 day): 0.8%; Fbg ([…], time 28 day): 180.4 mg/dL; Hb ([…], time 28 day): 15.5 g/dL; Ht ([…], time 28 day): 45.8%; Lym ([…], time 28 day): 84.6%; MCH ([…], time 28 day): 19.6 pg; MCHC ([…], time 28 day): 33.8%; MCV ([…], time 28 day): 57.9 fL; Mono ([…], time 28 day): 4.8%; Neu ([…], time 28 day): 9.8%; PT ([…], time 28 day): 14.8 s; Plat ([…], time 28 day): 86 x10_4/uL; RBC ([…], time 28 day): 791.8 x10_4/ul; Ret ([…], time 28 day): 0.7%; WBC ([…], time 28 day): 66.5 x10_2/uL; KIDNEY_L ([…], time 7 day): 0.9 g; KIDNEY_R ([…], time 7 day): 0.9 g; KIDNEY_TOTAL ([…], time 7 day): 1.8 g; KIDNEY_L ([…], time 14 day): 0.9 g; KIDNEY_R ([…], time 14 day): 0.9 g; KIDNEY_TOTAL ([…], time 14 day): 1.9 g; KIDNEY_L ([…], time 28 day): 0.8 g; KIDNEY_R ([…], time 28 day): 0.8 g; KIDNEY_TOTAL ([…], time 28 day): 1.6 g; LIVER ([…], time 7 day): 12.7 g; LIVER ([…], time 14 day): 12 g; LIVER ([…], time 28 day): 9.8 g; A/G ([…], time 7 day): 1.8; ALP ([…], time 7 day): 839.6 IU/L; ALT ([…], time 7 day): 29.6 IU/L; AST ([…], time 7 day): 57.8 IU/L; BUN ([…], time 7 day): 20.6 mg/dL; CRE ([…], time 7 day): 0.5 mg/dL; Ca ([…], time 7 day): 11.5 mg/dL; Cl ([…], time 7 day): 106.8 meq/L; DBIL ([…], time 7 day): 0.016 mg/dL; GLC ([…], time 7 day): 172 mg/dL; IP ([…], time 7 day): 6.8 mg/dL; K ([…], time 7 day): 4.5 meq/L; LDH ([…], time 7 day): 161.4 IU/L; Na ([…], time 7 day): 140.2 meq/L; PL ([…], time 7 day): 166.6 mg/dL; RALB ([…], time 7 day): 4.3 g/dL; TBIL ([…], time 7 day): 0.3 mg/dL; TC ([…], time 7 day): 101.6 mg/dL; TG ([…], time 7 day): 79.6 mg/dL; TP ([…], time 7 day): 6.7 g/dL; gamma-GTP ([…], time 7 day): 1.2 IU/L; A/G ([…], time 14 day): 1.8; ALP ([…], time 14 day): 489.4 IU/L; ALT ([…], time 14 day): 27.8 IU/L; AST ([…], time 14 day): 56.4 IU/L; BUN ([…], time 14 day): 23.4 mg/dL; CRE ([…], time 14 day): 0.7 mg/dL; Ca ([…], time 14 day): 11.4 mg/dL; Cl ([…], time 14 day): 107.4 meq/L; DBIL ([…], time 14 day): 0.016 mg/dL; GLC ([…], time 14 day): 176.4 mg/dL; IP ([…], time 14 day): 6.3 mg/dL; K ([…], time 14 day): 4 meq/L; LDH ([…], time 14 day): 152.8 IU/L; Na ([…], time 14 day): 141.8 meq/L; PL ([…], time 14 day): 144.8 mg/dL; RALB ([…], time 14 day): 4.4 g/dL; TBIL ([…], time 14 day): 0.2 mg/dL; TC ([…], time 14 day): 94.2 mg/dL; TG ([…], time 14 day): 32.6 mg/dL; TP ([…], time 14 day): 7 g/dL; gamma-GTP ([…], time 14 day): 1.6 IU/L; A/G ([…], time 28 day): 2; ALP ([…], time 28 day): 528 IU/L; ALT ([…], time 28 day): 34 IU/L; AST ([…], time 28 day): 65.4 IU/L; BUN ([…], time 28 day): 26.8 mg/dL; CRE ([…], time 28 day): 0.7 mg/dL; Ca ([…], time 28 day): 10.8 mg/dL; Cl ([…], time 28 day): 108 meq/L; DBIL ([…], time 28 day): 0.054 mg/dL; GLC ([…], time 28 day): 162 mg/dL; IP ([…], time 28 day): 5.5 mg/dL; K ([…], time 28 day): 4.1 meq/L; LDH ([…], time 28 day): 121.8 IU/L; Na ([…], time 28 day): 143.6 meq/L; PL ([…], time 28 day): 153 mg/dL; RALB ([…], time 28 day): 4.5 g/dL; TBIL ([…], time 28 day): 0.2 mg/dL; TC ([…], time 28 day): 101.2 mg/dL; TG ([…], time 28 day): 34.6 mg/dL; TP ([…], time 28 day): 6.8 g/dL; gamma-GTP ([…], time 28 day): 2.8 IU/L
